# Earlier results as cited in patent publication US20250215497A1, “IL-8, IL-6, IL-1 Beta and TET2 and DNMT3A in Atherosclerosis” (The Brigham and Women’s Hospital, Inc., priority 2017, published 2025).
# Tests used:
# IL-6 = details: patients with rheumatoid arthritis, low-dose methotrexate
# IL-1β = details: patients with rheumatoid arthritis, low-dose methotrexate (for example from 15 to 20 mg/week)
smiles,measurement,setting,value
CN(Cc1cnc2nc(N)nc(N)c2n1)c1ccc(C(=O)N[C@@H](CCC(=O)O)C(=O)O)cc1 [methotrexate],effect on IL-6 levels,IL-6,improve IL-6 levels
same,effect on IL-1β levels,IL-1β,improve IL-1β levels
